Reference: patent publication US6214882A, “Benzenesulphonamide derivatives, preparation thereof and therapeutical uses thereof” (Synthelabo, priority 1995, dated 2001)

How the values were obtained:
[1] = test system: urethral smooth muscles; assay: in vitro contraction of rabbit urethra rings; assay type: cell-based; settings: Oryctolagus cuniculus, read-out: urethral pD2 (converted)
Protocol: (§1) The in vitro activity of the compounds of the invention was studied on urethral and arterial smooth muscles.
(§2) These experiments were carried out on female New Zealand rabbits weighing from 3 to 3.5 kg. The animals were killed by vertebral dislocation, and rings of tissue were then removed from mesenteric arteries and from the urethra. These rings of tissue were immersed in a modified Krebs solution and oxygenated with a mixture of 95% O2 and 5% CO2. Each sample of tissue was subjected to a tension of 1 g, phenylephrine was then introduced at cumulative doses and the dose/response curve was established. After rinsing of the samples, the test compound was introduced at cumulative doses and the dose/response curve was established. The α1 -adrenergic effect of each compound is evaluated by calculating the pD2 (negative logarithm of the concentration of antagonist in the presence of which the effect of a dose of the agonist is divided by 2), as well as by the maximum effect representing the percentage of the maximum contraction obtained with phenylephrine (% Emax)

[2] = test system: arterial smooth muscles; assay: in vitro contraction of rabbit mesenteric artery rings; assay type: cell-based; settings: Oryctolagus cuniculus, read-out: arterial pD2 (converted)
Protocol: as §1, §2

EC50 [1]: 3.16 to 6.31 µM | EC50 [2]: 3.16 to 6.31 µM
SMILES: CNC[C@H](O)c1cccc(O)c1 [phenylephrine]
